Patent US20240408082A1, “METHODS FOR TREATING CANCERS AND TUMORS” (BEYONDSPRING PHARMACEUTICALS, INC., priority 2021, published 2024)
Values joined by “and” are separate entries in the source; they are usually repeats but may differ in a detail not shown here. Equal entries are not always repeated.

What was measured:
BXF 2211 = assay: 3D clonogenic assay, Example 1, BXF 2211; type: cell-based; details: model BXF 2211
Description: (§1) In the present study, plinabulin was characterized for its ability to inhibit anchorage independent growth and ex vivo colony formation of tumor cells in semi-solid medium. The compound was investigated in 87 out of 93 originally planned tumor xenografts representing all major cancer types using a 3D clonogenic assay in a 96-well format with colony count based on image analysis as read-out. By using this assay, the investigational compound was assessed for the ability to inhibit anchorage independent growth and ex vivo colony formation of tumor cells in semi-solid medium.
A master stock solution of plinabulin was prepared by dissolving the compound in DMSO at a concentration of 9.9 mM. Working stock solutions were prepared by diluting the master stock solution with DMSO to a concentration of 0.99 mM (330-fold the highest test concentration). Small aliquots of the master and working stock were stored at −20° C. […]
Plinabulin was investigated in 87 PDX models representing a number of cancer types. […] The percentage of viable cells was determined in a Neubauer-hemocytometer using trypan blue exclusion. […]
The clonogenic assay was carried out in a 96 well plate format using ultra low attachment plates. […] Cultures were incubated at 37° C. and 7.5% CO2 in a humidified atmosphere 13 days in total and monitored closely for colony growth using an inverted microscope. […]

[1] = test system: 87 PDX models of various histotypes; assay: 3D clonogenic assay, Example 1, all PDX models; type: cell-based
Description: as §1
A master stock solution of plinabulin was prepared by dissolving the compound in DMSO at a concentration of 9.9 mM. Working stock solutions were prepared by diluting the master stock solution with DMSO to a concentration of 0.99 mM (330-fold the highest test concentration). Small aliquots of the master and working stock were stored at −20° C. On each day of an experiment, an aliquot of the working stock was used and stored at room temperature prior to and during treatment. All liquid handling steps were performed using a Tecan Freedom EVO 200 robotic platform. First, serial dilutions of the working stock solution were done in DMSO. The DMSO dilutions were then diluted 1:22 into cell culture medium (IMDM, supplemented with 20% (v/v) fetal calf serum, and 50 μg/ml gentamicin) in an intermediate dilution plate. Finally, 10 μl taken from the intermediate dilution plate were transferred to 140 μl/well of the final assay plate. Thus, the DMSO working stock was diluted 1:330, and the DMSO concentration in the assay was 0.3% v/v in all wells.
Plinabulin was investigated in 87 PDX models representing a number of cancer types. Tumors were passaged as subcutaneous xenografts in NMRI nu/nu mice. At a tumor volume of 400-1000 mm^3 tumor-bearing mice were euthanized and tumors were collected under sterile conditions without delay according to relevant SOPs and the relevant animal welfare guidelines published by the FELASA and the GV-SOLAS. Tumors were mechanically disaggregated and subsequently incubated with an enzyme cocktail consisting of collagenase type IV (41 U/ml), DNase I (125 U/ml), hyaluronidase type III (100 U/ml), and dispase II (1 U/ml) in RPMI 1640 medium (Life Technologies) at 37° C. for 60-120 minutes. Cells were passed through sieves of 100 μm and 40 μm mesh size (Cell Strainer, BD Falcon™), and washed with RPMI 1640 medium (Biochrom). The percentage of viable cells was determined in a Neubauer-hemocytometer using trypan blue exclusion. Aliquots of the cells were frozen down and stored in a liquid nitrogen vapor phase. On each day of an experiment, a frozen aliquot of tumor cells was thawed and used for the preparation of assay plates.
The clonogenic assay was carried out in a 96 well plate format using ultra low attachment plates. For each test, cells were prepared as described above and assay plates were prepared as follows: each test well contained a layer of semi-solid medium with tumor cells (50 μl), and a second layer of medium supernatant with or without test compound (100 μl). The cell layer consisted of 2.5-12.5×10^3 tumor cells per well, which were seeded on day 0 (d0) in 50 μl/well cell culture medium (IMDM, supplemented with 20% (v/v) fetal calf serum, 50 μg/ml gentamicin, and 0.4% (w/v) agar). After 24 h, the soft-agar layer was covered with 90 μl of the same culture medium without agar. Seven days after seeding 10 μl of test compound or control medium was added, and left on the cells for 24 h. Every 96 well plate included six DMSO-treated control wells and drug-treated wells in duplicate at 9 concentrations. After the incubation time of 24 h the supernatant (90 μl medium without agar +10 μl compound/control) was changed against drug free medium and incubated until the end of the study. Cultures were incubated at 37° C. and 7.5% CO2 in a humidified atmosphere 13 days in total and monitored closely for colony growth using an inverted microscope. […]

## CC(C)(C)c1[nH]cnc1/C=c1\[nH]c(=O)/c(=C/c2ccccc2)[nH]c1=O [plinabulin, (3Z,6Z)-3-Benzylidene-6-{[5-(2-methyl-2-propanyl)-1H-imidazol-4-yl]methylene}-2,5-piperazinedione]
BXF 2211
  absolute IC70: 3 nM
[1]; 87 PDX models
  Sensitive Tumors, Number, Based on Abs. IC70: 40 out of 87 and 40/87
  Sensitive Tumors, Number, Based on Rel. IC70: 23/87
  Sensitive Tumors, Percentage, Based on Abs. IC70: 46%
  Sensitive Tumors, Percentage, Based on Rel. IC70: 26%
[1]; all 87 PDX models, 24 h treatment, 13 days culture
  geometric mean absolute IC70, tumor colony formation: 166 nM
[1]; geometric means
  Fold difference of IC70 of sensitive tumors vs. all tumors, Based on Abs. IC70: 6.8 fold
  Fold difference of IC70 of sensitive tumors vs. all tumors, Based on Rel. IC70: 4.6 fold
[1]; sigmoidal concentration-effect curves
  inhibition of tumor colony formation (in words): inhibited tumor colony formation in a concentration-dependent manner in almost all cell lines
